Laboratory results: US8664407B2, “Chemical linkers with single amino acids and conjugates thereof” (Medarex, LLC, priority 2007, dated 2014)

Tests used:
[1] = target: T1, bovine spleen cathepsin B (Bos taurus, UniProt P07688); assay: Cathepsin B mediated cleavage of single amino acid linkers (RP-HPLC, A340); format: biochemical; settings: cysteine modified compound, activated cathepsin B, pH 5.0, 37° C.
T1 construct: bovine spleen cathepsin B (Sigma product code C-6286) was prepared by dissolving lyophilized solid; purchased Sigma C-6286; host or cells: bovine spleen (tissue-derived)
Description: (§1) A panel of single amino acid compounds, each differing with respect to amino acid composition but of otherwise similar structure, was assayed for cathepsin B activity. The following compounds were tested: compounds A,B,C,D,E and F. The appearance of cathepsin B-mediated products was monitored by application to RP-HPLC with quantitation of drug products by their absorbance at 340 nm.
(§2) Cathepsin B Enzyme Assay: A stock solution of bovine spleen cathepsin B (Sigma product code C-6286) was prepared by dissolving lyophilized solid (6 mg at 56% protein) in 25 mM sodium acetate/1 mM EDTA pH 5.0 buffer (10 mL). Enzyme activation was accomplished by mixing the stock solution (50 uL) with activation buffer (100 ul) comprised of 30 mM DTT/15 mM EDTA, followed by incubation at room temperature for 15 minutes. The activated cathepsin B was diluted 1:1 with a solution of 25 mM sodium acetate/1 mM EDTA, pH 5.0 prior to use. To assay for drug release, cysteine modified compound (4 uL of 2.5 mM solution in DMSO) was added to 25 mM sodium acetate/1 mM EDTA pH 5.0 buffer (86 uL) and activated cathepsin B (10 uL at 3.6 U/mL). Samples were incubated at 37° C. for appropriate time points and stopped with methanol (100 uL).
(§3) Compounds samples (40 uL) were applied to a Waters 2795 HPLC system fitted with a reverse phase column (Waters Nova-pak C18, 3.9×150 mm column, product code WAT086344). Sample chromatography was accomplished using a dual mobile phase system comprised of water/0.1% TFA (A buffer) and acetonitrile/0.1% TFA (B buffer) with a gradient elution of 10-100% B buffer over 20 min at 1.0 mL/min. compounds were detected by its absorbance at 340 nm (A340).

[2] = test system: 786-O; assay: In vivo study: 786-O tumor xenograft, toxin-conjugated anti-CD70 HuMAb 2H5; settings: 0.03 μmol toxin dosage, IP, dosed on Day 0; CD70.1 antibody conjugates; 786-O tumors in male CB17.SCID mice
Description: 786-O (ATCC Accession No. CRL-1932) cells were expanded in vitro using standard laboratory procedures. Male CB17.SCID mice (Taconic, Hudson, N.Y.) between 6-8 weeks of age were implanted subcutaneously in the right flank with 2.5 million 786-O in 0.2 ml of PBS/Matrigel (1:1) per mouse. Mice were weighed and measured for tumors three dimensionally using an electronic caliper twice weekly after implantation. Tumor volumes were calculated as height×width×length. Mice with tumors averaging 200 mm^3 were randomized into treatment groups. The mice were dosed intraperitoneally with PBS vehicle, toxin-conjugated isotype control antibody or toxin-conjugated anti-CD70 HuMAb 2H5 on Day 0. Each group contained 8 mice.
FIGS. 1, 2, 5, and 6 show the mean tumor volume versus days past dosing and FIGS. 3, 4, 7, and 8 show the median tumor volume versus days past dosing (0.03 μmol—FIGS. 1, 3, 5, and 7; 0.005 μmol—FIGS. 2, 4, 6, and 8).

[3] = target: T2, cathepsin B (Bos taurus, UniProt P07688); assay: Cathepsin B mediated cleavage of single amino acid linkers (RP-HPLC, A340); format: biochemical, bovine; settings: bovine, activated bovine spleen cathepsin B (isolated enzyme), cysteine modified compound, pH 5.0, 37° C., read-out: Approx. substrate half-life (converted)
T2 construct: bovine spleen cathepsin B (Sigma product code C-6286) was prepared by dissolving lyophilized solid; purchased Sigma C-6286; host or cells: bovine spleen (tissue-derived)
Description: as §1, §2, §3

Structure (SMILES) | Cathepsin B cleavage [1] | Efficacy (tumor volume versus days past dosing), descending order [2] | Cathepsin B cleavage ([1]; listed as compound D) | half-life at 100 µM [3] [h] | Cathepsin B cleavage ([1]; listed as compound A)
CN1CCN(C(=O)Oc2cc3c(c4ccccc24)[C@H](CCl)CN3C(=O)c2cc3cc(NC(=O)c4ccc(NC(=O)[C@H](CCC(=O)O)NC(=O)CCCCCN5C(=O)C=CC5=O)cc4)ccc3[nH]2)CC1 [Compound F] | No | Compound E>Compound F>Compound A>Compound C, Compound D>Compound B>Compound G | – | – | –
CN1CCN(C(=O)Oc2cc3c(c4ccccc24)[C@H](CCl)CN3C(=O)c2cc3c4c(ccc3[nH]2)N(C(=O)c2ccc(NC(=O)[C@H](CCCNC(N)=O)NC(=O)CCCCCN3C(=O)C=CC3=O)cc2)CC4)CC1 [Compound C] | No | Compound E>Compound F>Compound A>Compound C, Compound D>Compound B>Compound G | – | – | –
CN1CCN(C(=O)Oc2cc3c(c4ccccc24)[C@H](CCl)CN3C(=O)c2cc3cc(NC(=O)c4ccc(NCC(=O)NCCNC(=O)CCCN5C(=O)C=CC5=O)cc4)ccc3[nH]2)CC1 [Compound G] | – | Compound E>Compound F>Compound A>Compound C, Compound D>Compound B>Compound G | – | – | –
CN1CCN(C(=O)Oc2cc3c(c4ccccc24)[C@H](CCl)CN3C(=O)c2cc3cc(NC(=O)c4ccc(NC(=O)[C@H](CO)NC(=O)CCCN5C(=O)C=CC5=O)cc4)ccc3[nH]2)CC1 [Compound D] | No | Compound E>Compound F>Compound A>Compound C, Compound D>Compound B>Compound G | cleaved by cathepsin B | – | –
CN1CCN(C(=O)Oc2cc3c(c4ccccc24)[C@H](CCl)CN3C(=O)c2cc3cc(NC(=O)c4ccc(NC(=O)[C@H](CCCNC(N)=O)NCCNC(=O)CCCCCN5C(=O)C=CC5=O)cc4)ccc3[nH]2)CC1 [Compound B] | No | Compound E>Compound F>Compound A>Compound C, Compound D>Compound B>Compound G | – | – | –
CN1CCN(C(=O)Oc2cc3c(c4ccccc24)[C@H](CCl)CN3C(=O)c2cc3cc(NC(=O)c4ccc(NC(=O)[C@H](CCCNC(N)=O)NC(=O)CCCCCN5C(=O)C=CC5=O)cc4)ccc3[nH]2)CC1 [Compound A] | Yes | Compound E>Compound F>Compound A>Compound C, Compound D>Compound B>Compound G | – | ~24 | cleaved by cathepsin B
CN1CCN(C(=O)Oc2cc3c(c4ccccc24)[C@H](CCl)CN3C(=O)c2cc3cc(NC(=O)c4ccc(NC(=O)[C@H](CCCCN)NC(=O)CCCCCN5C(=O)C=CC5=O)cc4)ccc3[nH]2)CC1 [Compound E] | Yes | Compound E>Compound F>Compound A>Compound C, Compound D>Compound B>Compound G | – | ~4 | –
